Legend:
algae and daphnia = assay: Aquatic toxicity to algae and daphnia according to standards OECD 201 and 202; format: in vivo
Description: Preferably, the grease compositions according to the invention contain additives which are not hazardous to the environment and human health. Preferably, the grease compositions according to the invention are free from organic halogenated compounds, nitrite type compounds, metals or metallic compounds other than sodium, potassium, magnesium, calcium, lithium and/or aluminium. Preferably, the grease compositions according to the invention are not toxic to the aquatic environment. In particular the grease compositions according to the invention have an aquatic toxicity to algae, daphnia and fish of at least 1000 mg/l according to standards OECD 201, 202 and 203.
Similarly, the main constituents of the grease, i.e. those present at more than 5% by mass with respect to the total mass of the grease composition, such as the base oil and the soap, have an aquatic toxicity to algae and daphnia of at least 100 mg/l according to standards OECD 201 and 202.
Similarly, when a constituent has an aquatic toxicity to algae and daphnia of at least 100 mg/l according to standards OECD 201 and 202 (category D), said constituent can be present in the grease at any concentration. The grease compositions according to the invention have a concentration by mass of constituents having an aquatic toxicity to algae and daphnia comprised between 10 mg/l and 100 mg/l according to standards OECD 201 and 202 (category E), less than or equal to 25%. The grease compositions according to the invention have a concentration by mass of constituents having an aquatic toxicity to algae and daphnia comprised between 1 mg/l and 10 mg/l according to standards OECD 201 and 202 (category F), less than or equal to 2%, preferably less than or equal to 1%. This only concerns the constituents of the grease the concentration by mass in the grease of which is greater than or equal to 0.1%.

[1] = Biodegradability according to standard OECD 301B
Description: This only concerns the constituents of the grease the concentration by mass in the grease of which is greater than or equal to 0.1%.

| Compound | aquatic toxicity to algae and daphnia (algae and daphnia; in vivo) | aquatic toxicity to algae and daphnia (algae and daphnia; OECD 201 and 202) | aquatic toxicity to algae and daphnia, category (algae and daphnia; OECD 201 and 202) | biodegradability [1] [%] |
| --- | --- | --- | --- | --- |
| CCCCCCCCCCCCCCCCCCOC(=O)CCc1cc(C(C)(C)C)c(O)c(C(C)(C)C)c1 [antioxidant 2, Octadecyl 3-(3,5-ditertiobutyl-4-hydroxyphenyl) propanoate] | over 100 mg/l |  |  |  |
| CCCCCCC(O)CCCCCCCCCCC(=O)[O-].[Li+] (centres unmarked) [lithium 12-hydroxystearate] |  | over 100 mg/l | D (aquatic toxicity to algae and daphnia of at least 100 mg/l according to standards OECD 201 and 202 (category D)) |  |
| Tolyltriazole [corrosion inhibitor 2] | 1 to 10 mg/L |  |  | 4 |

Source: US9951292B2, “Grease composition” (TOTAL MARKETING SERVICES, priority 2011, dated 2018)
